Measured values published in patent US4826813A, “4'-Methyl-β-mercapto-β,β-cyclopentamethylenepropionic acid vasopressin antagonists” (SmithKline Beckman Corporation, priority 1987, dated 1989).
*1 amine or outer side, *2 acyl side, *3 side chain or, on linkers, in order; H or OH if unused. Where a SMILES comes first, the peptide text is derived from it. Bridges are numbered along the chain shown (N, C = ends). [ ]: non-standard residue; d: D form. X2 = C[C@H]1CC[C@@](CC(=O)[*:1])(S[*:2])CC1

Legend:
[1] = target: vasopressin stimulated adenylate cyclase (V2 -receptors) (Sus scrofa, UniProt P32307); experiment: biochemical
Sequence of vasopressin stimulated adenylate cyclase (V2 -receptors) (P32307 whole entry): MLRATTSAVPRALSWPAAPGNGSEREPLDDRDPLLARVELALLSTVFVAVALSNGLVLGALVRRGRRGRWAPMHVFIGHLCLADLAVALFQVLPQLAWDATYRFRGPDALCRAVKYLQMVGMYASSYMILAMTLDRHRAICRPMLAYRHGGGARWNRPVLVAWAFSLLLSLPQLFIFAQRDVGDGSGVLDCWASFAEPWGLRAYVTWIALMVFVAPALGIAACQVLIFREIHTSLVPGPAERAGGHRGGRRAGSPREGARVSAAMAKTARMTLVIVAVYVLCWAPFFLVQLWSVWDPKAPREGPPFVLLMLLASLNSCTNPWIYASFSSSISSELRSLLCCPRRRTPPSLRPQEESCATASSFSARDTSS
Experimental: (§1) V2 -antagonistic activity toward the natural anti-diuretic hormone (anti-ADH activity) is determined, in vitro, in the medullary tissue of hog or human kidneys and, in vivo, in the hydropenic rat. The in vitro assay procedures for vasopressin stimulated adenylate cyclase activation or vasopressin binding activity are described by F. Stassen et al., J. Pharmacology and Experimental Therapeutics 223, 50-54 (1982). V1 -antagonistic activity is determined by procedures using the rat thoracic aorta tissue and plasma membranes of rat liver. These procedures are described in the noted Stassen publication and in a publication at the 1st International Conference on Diuretics, Miami, Fla., March (1984). Oxytocin antagonism is determined as described by W. Sawyer et al., Endocrinology 106, 81 (1979).
(§2) The hydropenic rat screen and the hog kidney assay are known to the art, Huffman et al., U.S. Pat. No. 4,469,679.

[2] = target: vasopressin receptors (V2 -receptors) (Sus scrofa, UniProt P32307); experiment: biochemical
Sequence of vasopressin receptors (V2 -receptors) (P32307 whole entry): as above
Experimental: as §1, §2

SMILES | Ki [1] | Ki [2]
COc1ccc(C[C@@H]2NC(=O)C[C@]3(CC[C@H](C)CC3)SSC[C@@H](C(=O)N3CCC[C@H]3C(=O)N[C@@H](CCCNC(=N)N)C(=O)NCC(N)=O)NC(=O)[C@H](CC(N)=O)NC(=O)[C@H](C(C)C)NC(=O)[C@H](Cc3ccccc3)NC2=O)cc1 [LTyr(Me) GlyNH2] (Y(Me)FVNCPRG-NH2; linker N-5 via X2) | 44 nM | 130 nM
CCOc1ccc(C[C@H]2NC(=O)C[C@]3(CC[C@H](C)CC3)SSC[C@@H](C(=O)N3CCC[C@H]3C(=O)N[C@@H](CCCNC(=N)N)C(N)=O)NC(=O)[C@H](CC(N)=O)NC(=O)[C@H](C(C)C)NC(=O)[C@H](Cc3ccccc3)NC2=O)cc1 [DTyr(Et) NH2, [1-(4'-methyl-β-mercapto-β,β-cyclopentamethylenepropionic acid)-2-(O-ethyl)-D-tyrosine-4-valine-8-arginine-9-desglycine]-vasopressin] ([dY](Et)FVNCPR-NH2; linker N-5 via X2) | – | 19 nM
CCOc1ccc(C[C@H]2NC(=O)C[C@]3(CC[C@H](C)CC3)SSC[C@@H](C(=O)N3CCC[C@H]3C(=O)N[C@@H](CCCNC(=N)N)C(=O)NCC(N)=O)NC(=O)[C@H](CC(N)=O)NC(=O)[C@H](C(C)C)NC(=O)[C@H](Cc3ccccc3)NC2=O)cc1 [DTyr(Et) GlyNH2, [1-(4'-methyl-β-mercapto-β,β-cyclopentamethylene propionic acid)-2-(O-ethyl)-D-tyrosine-4-valine-8-arginine]-vasopressin] ([dY](Et)FVNCPRG-NH2; linker N-5 via X2) | 4.2 nM | 13 nM
